Measured values as given in ChEMBL document CHEMBL3232814, “Synthesis and anticancer structure activity relationship investigation of cationic anthraquinone analogs” (2014).

How the values were obtained:
Format in all cases: functional
NCI-H522 = test: Growth inhibition of human NCI-H522 cells; settings: for CC50: read-out: LC50 (the source's name)
[1] = Growth inhibition of human LOXIMVI cells; settings: LOX IMVI
[2] = Growth inhibition of human SF295 cells; settings: SF-295
SK-MEL-2 = test: Growth inhibition of human SK-MEL-2 cells; settings: for CC50: read-out: LC50 (the source's name)
SK-MEL-28 = test: Growth inhibition of human SK-MEL-28 cells; settings: for CC50: read-out: LC50 (the source's name)
M14 = test: Growth inhibition of human M14 cells; settings: for CC50: read-out: LC50 (the source's name)
[3] = Growth inhibition of human EKVX cells
SNB-75 = test: Growth inhibition of human SNB75 cells; settings: for CC50: read-out: LC50 (the source's name)
MDA-MB-435 = test: Growth inhibition of human MDA-MB-435 cells; settings: for CC50: read-out: LC50 (the source's name)
[4] = Growth inhibition of human UACC62 cells; settings: for GI50: UACC-62; for CC50: UACC-62, read-out: LC50 (the source's name)
KM12 = test: Growth inhibition of human KM12 cells; settings: for CC50: read-out: LC50 (the source's name)
Malme-3M = test: Growth inhibition of human MALME-3M cells; settings: for CC50: read-out: LC50 (the source's name)
HT-29 = test: Growth inhibition of human HT-29 cells
SW-620 = test: Growth inhibition of human SW620 cells; settings: for CC50: read-out: LC50 (the source's name)
HCT-116 = test: Growth inhibition of human HCT116 cells; settings: for CC50: read-out: LC50 (the source's name)
NCI-H23 = test: Growth inhibition of human NCI-H23 cells; settings: for CC50: read-out: LC50 (the source's name)
[5] = Growth inhibition of human UACC257 cells; settings: for GI50: UACC-257; for CC50: UACC-257, read-out: LC50 (the source's name)
Staphylococcus aureus = test: Antimicrobial activity against Staphylococcus aureus ATCC 25923 after 12 to 18 hrs by 2-fold serial dilution method
HOP-62 = test: Growth inhibition of human HOP62 cells; settings: for CC50: read-out: LC50 (the source's name)
[6] = Growth inhibition of human HCC2998 cells; settings: for GI50: HCC 2998; for CC50: HCC 2998, read-out: LC50 (the source's name)
[7] = Growth inhibition of human HOP92 cells; settings: for GI50: HOP-92; for CC50: HOP-92, read-out: LC50 (the source's name)
A549 = test: Growth inhibition of human A549 cells; settings: for CC50: read-out: LC50 (the source's name)
[8] = Growth inhibition of human HCT15 cells; settings: for GI50: HCT-15; for CC50: HCT-15, read-out: LC50 (the source's name)
SNB-19 = test: Growth inhibition of human SNB19 cells
SF-268 = test: Growth inhibition of human SF268 cells; settings: for CC50: read-out: LC50 (the source's name)
COLO 205 = test: Growth inhibition of human COLO205 cells; settings: for CC50: read-out: LC50 (the source's name)
[9] = Growth inhibition of human NCI60 cells assessed as cell growth; set-up: concentration or dose not given beside the values
NCI-H460 = test: Growth inhibition of human NCI-H460 cells; settings: for CC50: read-out: LC50 (the source's name)
SK-MEL-5 = test: Growth inhibition of human SK-MEL-5 cells
[10] = Growth inhibition of human SF539 cells; settings: for GI50: SF-539; for CC50: SF-539, read-out: LC50 (the source's name)
U-251 = test: Growth inhibition of human U251 cells
NCI-H322M = test: Growth inhibition of human NCI-H322M cells; settings: for CC50: read-out: LC50 (the source's name)
NCI-H226 = test: Growth inhibition of human NCI-H226 cells; settings: for CC50: read-out: LC50 (the source's name)
[11] = read-out: LC50 (the source's name)

COc1ccc(-n2n[n+](C)c3c2C(=O)c2ccccc2C3=O)cc1.O=S(=O)([O-])C(F)(F)F
GI50 (NCI-H522): 2050 nM | CC50 (NCI-H522): 18200 nM | GI50 [1]: 1240 nM | GI50 [2]: 630 nM | LC50 (concentration killing 50% of cells) [2]: 5250 nM | GI50 (SK-MEL-2): 2050 nM | CC50 (SK-MEL-2): > 100000 nM | GI50 (SK-MEL-28): 1130 nM | CC50 (SK-MEL-28): 6520 nM | GI50 (M14): 210 nM | CC50 (M14): 880 nM | GI50 [3]: 2420 nM | CC50 [3, 11]: 33000 nM | GI50 (SNB-75): 1250 nM | CC50 (SNB-75): 5150 nM | GI50 (MDA-MB-435): 190 nM | CC50 (MDA-MB-435): 680 nM | GI50 [4]: 1010 nM | CC50 [4]: 6160 nM | GI50 (KM12): 970 nM | CC50 (KM12): 6240 nM | GI50 (Malme-3M): 240 nM | CC50 (Malme-3M): 2110 nM | GI50 (HT-29): 380 nM | LC50 (HT-29): > 100000 nM | GI50 (SW-620): 380 nM | CC50 (SW-620): 5330 nM | GI50 (HCT-116): 370 nM | CC50 (HCT-116): > 100000 nM | GI50 (NCI-H23): 1050 nM | CC50 (NCI-H23): > 100000 nM | GI50 [5]: 1450 nM | CC50 [5]: 5520 nM | MIC (Staphylococcus aureus): 4 µg/mL | GI50 (HOP-62): 980 nM | CC50 (HOP-62): 5140 nM | GI50 [6]: 450 nM | CC50 [6]: 4720 nM | GI50 [7]: 3470 nM | CC50 [7]: > 100000 nM | GI50 (A549): 330 nM | CC50 (A549): > 100000 nM | GI50 [8]: 1230 nM | CC50 [8]: 7170 nM | GI50 (SNB-19): 1010 nM | LC50 (SNB-19): 4940 nM | GI50 (SF-268): 1720 nM | CC50 (SF-268): > 100000 nM | GI50 (COLO 205): 230 nM | CC50 (COLO 205): 960 nM | Activity [9]: -24.7% | GI50 (NCI-H460): 300 nM | CC50 (NCI-H460): 6320 nM | GI50 (SK-MEL-5): 160 nM | LC50 (lethal concentration 50) (SK-MEL-5): 610 nM | GI50 [10]: 1280 nM | CC50 [10]: 5600 nM | GI50 (U-251): 1160 nM | LC50 (U-251): 5770 nM

COc1cc(-n2n[n+](C)c3c2C(=O)c2ccccc2C3=O)cc(OC)c1OC.O=S(=O)([O-])C(F)(F)F
GI50 (NCI-H522): 1710 nM | CC50 (NCI-H522): 8380 nM | GI50 [1]: 1190 nM | CC50 [1, 11]: > 100000 nM | GI50 [2]: 540 nM | LC50 (concentration killing 50% of cells) [2]: 4670 nM | GI50 (SK-MEL-2): 1750 nM | CC50 (SK-MEL-2): 8090 nM | GI50 (SK-MEL-28): 1370 nM | CC50 (SK-MEL-28): 7110 nM | GI50 (M14): 480 nM | CC50 (M14): 4510 nM | GI50 (SNB-75): 1430 nM | CC50 (SNB-75): 5340 nM | GI50 (MDA-MB-435): 190 nM | CC50 (MDA-MB-435): 670 nM | GI50 [4]: 1230 nM | CC50 [4]: 6120 nM | GI50 (KM12): 2110 nM | CC50 (KM12): > 100000 nM | GI50 (Malme-3M): 300 nM | CC50 (Malme-3M): 3260 nM | GI50 (HT-29): 340 nM | LC50 (HT-29): > 100000 nM | GI50 (SW-620): 1990 nM | CC50 (SW-620): > 100000 nM | GI50 (HCT-116): 460 nM | CC50 (HCT-116): 18000 nM | GI50 (NCI-H23): 1940 nM | GI50 [5]: 1370 nM | CC50 [5]: 5810 nM | MIC (Staphylococcus aureus): 32 µg/mL | GI50 (NCI-H322M): 400 nM | CC50 (NCI-H322M): 5270 nM | GI50 (HOP-62): 1310 nM | CC50 (HOP-62): 7220 nM | GI50 (NCI-H226): 1800 nM | CC50 (NCI-H226): 18000 nM | GI50 [6]: 1630 nM | CC50 [6]: 8220 nM | GI50 [7]: 1920 nM | CC50 [7]: > 100000 nM | GI50 (A549): 1680 nM | CC50 (A549): > 100000 nM | GI50 [8]: 1350 nM | GI50 (SNB-19): 1400 nM | LC50 (SNB-19): 6990 nM | GI50 (SF-268): 870 nM | CC50 (SF-268): > 100000 nM | GI50 (COLO 205): 390 nM | CC50 (COLO 205): 5050 nM | Activity [9]: -27.06% | GI50 (NCI-H460): 790 nM | CC50 (NCI-H460): > 100000 nM | GI50 (SK-MEL-5): 240 nM | LC50 (lethal concentration 50) (SK-MEL-5): 2320 nM | GI50 [10]: 400 nM | CC50 [10]: 3800 nM | GI50 (U-251): 1540 nM | LC50 (U-251): 5520 nM

COc1ccc(-n2n[n+](C)c3c2C(=O)c2ccccc2C3=O)cc1OC.O=S(=O)([O-])C(F)(F)F
GI50 (NCI-H522): 2000 nM | CC50 (NCI-H522): 6860 nM | GI50 [1]: 1140 nM | GI50 [2]: 200 nM | LC50 (concentration killing 50% of cells) [2]: 950 nM | GI50 (SK-MEL-2): 1400 nM | CC50 (SK-MEL-2): 7370 nM | GI50 (SK-MEL-28): 1340 nM | CC50 (SK-MEL-28): 6470 nM | GI50 (M14): 330 nM | CC50 (M14): 3470 nM | GI50 (SNB-75): 820 nM | CC50 (SNB-75): 4560 nM | GI50 (MDA-MB-435): 190 nM | CC50 (MDA-MB-435): 640 nM | GI50 [4]: 1220 nM | CC50 [4]: 5090 nM | GI50 (KM12): 1380 nM | CC50 (KM12): 7230 nM | GI50 (Malme-3M): 210 nM | CC50 (Malme-3M): 1880 nM | GI50 (HT-29): 550 nM | LC50 (HT-29): 22200 nM | GI50 (SW-620): 1660 nM | CC50 (SW-620): 8870 nM | GI50 (HCT-116): 1160 nM | CC50 (HCT-116): 9530 nM | GI50 (NCI-H23): 1060 nM | CC50 (NCI-H23): > 100000 nM | GI50 [5]: 1490 nM | CC50 [5]: 5340 nM | MIC (Staphylococcus aureus): 4 µg/mL | GI50 (NCI-H322M): 300 nM | CC50 (NCI-H322M): 3340 nM | GI50 (HOP-62): 1230 nM | CC50 (HOP-62): 5640 nM | GI50 (NCI-H226): 1300 nM | CC50 (NCI-H226): 6850 nM | GI50 [6]: 1650 nM | CC50 [6]: 5790 nM | GI50 [7]: 2270 nM | CC50 [7]: 58800 nM | GI50 (A549): 400 nM | CC50 (A549): 8970 nM | GI50 [8]: 1110 nM | CC50 [8]: 6060 nM | GI50 (SNB-19): 1140 nM | LC50 (SNB-19): 4870 nM | GI50 (SF-268): 1230 nM | CC50 (SF-268): > 100000 nM | GI50 (COLO 205): 310 nM | CC50 (COLO 205): 5710 nM | Activity [9]: -31.51% | GI50 (NCI-H460): 360 nM | CC50 (NCI-H460): 8210 nM | GI50 (SK-MEL-5): 160 nM | LC50 (lethal concentration 50) (SK-MEL-5): 570 nM | GI50 [10]: 500 nM | CC50 [10]: 4080 nM | GI50 (U-251): 1340 nM | LC50 (U-251): 5110 nM
